This assay addresses T1, full-length human PKCι (Homo sapiens, UniProt P41743).
T1 construct: Recombinant, full-length human PKCι expressed in Sf21 insect cells is also commercially available; purchased; host or cells: Sf21 insect cells
T1 sequence (P41743 1-596): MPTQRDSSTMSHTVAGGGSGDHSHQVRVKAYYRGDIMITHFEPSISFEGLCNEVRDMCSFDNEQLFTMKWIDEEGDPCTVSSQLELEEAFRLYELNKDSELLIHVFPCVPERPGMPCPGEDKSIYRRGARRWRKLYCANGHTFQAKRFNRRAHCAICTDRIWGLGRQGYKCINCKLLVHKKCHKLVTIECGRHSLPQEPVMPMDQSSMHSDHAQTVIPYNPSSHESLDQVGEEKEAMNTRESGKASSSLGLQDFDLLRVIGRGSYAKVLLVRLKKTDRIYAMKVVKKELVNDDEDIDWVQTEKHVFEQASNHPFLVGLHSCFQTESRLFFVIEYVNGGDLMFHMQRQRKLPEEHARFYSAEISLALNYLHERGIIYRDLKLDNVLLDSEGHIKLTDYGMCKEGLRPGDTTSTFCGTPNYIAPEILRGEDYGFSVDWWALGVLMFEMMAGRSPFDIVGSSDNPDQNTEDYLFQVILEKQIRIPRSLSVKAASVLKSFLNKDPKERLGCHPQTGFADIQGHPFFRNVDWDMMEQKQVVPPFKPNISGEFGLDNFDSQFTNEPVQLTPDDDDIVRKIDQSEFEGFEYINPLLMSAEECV
As to the kind of experiment: PKCι IC50 IMAP assay, full-length PKCι at 150 μM ATP. The assay is classed as biochemical. Conditions: read-out: IC50 in IMAP assay against full length PKCi at 150 μM ATP. In short, it runs like this: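 Dose-response IC50 values come from IMAP fluorescence polarisation after 60 min room-temperature turnover of 100 nM FAM peptide by ~15 pM insect-cell-expressed full-length PKCι at 150 μM ATP (5× KM^APP), normalised to no-compound and no-enzyme controls.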

On to `c1ccc2cc(Nc3cc(-c4nc(N5CCNCC5)c5c(C6CC6)cncc5n4)ccn3)ccc2c1` [Example 2050, [4-(5-Cyclopropyl-4-piperazin-1-yl-pyrido[3,4-d]pyrimidin-2-yl)-pyridin-2-yl]-naphthalen-2-yl-amine], for which the IC50 was less than 100 nM. The result for `CS(=O)(=O)C[C@H]1CN(c2nc(-c3ccnc(NC(=O)C4CC4)c3)nc3cncc(C4CC4)c23)CCN1` [Example 773, Cyclopropanecar-boxylic acid {4-[5-cyclopropyl-4-((R)-3-methanesulfonyl-methyl-piperazin-1-yl)-pyrido[3,4-d]pyrimidin-2-yl]-pyridin-2-yl}-amide] reads 100 to 1000 nM; that for `FC(F)(F)C1(c2cc3c(-c4nc(N5CCNCC5)c5c(C6CC6)cncc5n4)ccnc3[nH]2)CCC1` [Example 2207, 5-Cyclopropyl-4-piperazin-1-yl-2-[2-(1-trifluoromethyl-cyclobutyl)-1H-pyrrolo[2,3-b]pyridin-4-yl]-pyrido[3,4-d]pyrimidine], less than 100 nM; that for `c1cc(-c2nc(N3CCNCC3)c3c(C4CC4)cncc3n2)c2cc([C@@H]3C[C@H]4CC[C@@H]3O4)[nH]c2n1` (racemic) [Example 2121, (±)-exo-5-Cyclopropyl-2-[2-(7-oxa-bicyclo[2.2.1]hept-2-yl)-1H-pyrrolo[2,3-b]pyridin-4-yl]-4-piperazin-1-yl-pyrido[3,4-d]pyrimidine], less than 100 nM.

In the case of `c1csc(-c2cc3c(-c4nc(N5CCNCC5)c5c(C6CC6)cncc5n4)ccnc3[nH]2)c1` [Example 1222, 5-Cyclopropyl-4-piperazin-1-yl-2-(2-thiophen-2-yl-1H-pyrrolo[2,3-b]pyridin-4-yl)-pyrido[3,4-d]pyrimidine], the IC50 is less than 100 nM. For the molecule `CN[C@H](CNc1nc(-c2ccncc2)nc2cncc(OC)c12)Cc1ccccc1` [Example 41, [(2S)-1-{[5-methoxy-2-(pyridin-4-yl)-pyrido[3,4-d]-pyrimidin-4-yl]-amino}-3-phenylpropan-2-yl](methyl)amine], the IC50 was less than 100 nM. As to `OC1(C2CN(c3nc(-c4ccnc(Cl)c4)nc4cncc(C5CC5)c34)CCN2)CC1` (stereo not drawn) [Example 562, 1-{4-[2-(2-Chloro-pyridin-4-yl)-5-cyclopropyl-pyrido[3,4-d]pyrimidin-4-yl]-piperazin-2-yl}-cyclopropanol], the IC50 fell in the range of 100 to 1000 nM. Take `Fc1ccc(F)c(Nc2cc(-c3nc(N4CCNCC4)c4c(C5CC5)cncc4n3)ccn2)c1` [Example 521, [4-(5-Cyclopropyl-4-piperazin-1-yl-pyrido[3,4-d]pyrimidin-2-yl)-pyridin-2-yl]-(2,5-difluoro-phenyl)-amine]: the half-inhibitory concentration (IC50) is less than 100 nM. `COc1cncc2nc(-c3ccnc(Nc4cc(C#N)ccc4F)c3)nc(N3CCNCC3)c12` [Example 420, 4-Fluoro-3-[4-(5-methoxy-4-piperazin-1-yl-pyrido[3,4-d]pyrimidin-2-yl)-pyridin-2-ylamino]-benzonitrile]: the IC50 fell in the range of 100 to 1000 nM. Regarding `CN1CCC(N(C)c2nc(-c3ccnc4[nH]c(C(F)(F)F)cc34)nc3cncc(C4CC4)c23)CC1` [Example 2081, [5-Cyclopropyl-2-(2-trifluoromethyl-1H-pyrrolo[2,3-b]pyridin-4-yl)-pyrido[3,4-d]pyrimidin-4-yl]-methyl-(1-methyl-piperidin-4-yl)-amine], the IC50 is less than 100 nM. On to `OC[C@@H](O)CN1CCN(c2nc(-c3ccnc(Nc4ccccc4)c3)nc3cncc(C4CC4)c23)CC1` [Example 607, (S)-3-{4-[5-Cyclopropyl-2-(2-phenylamino-pyridin-4-yl)-pyrido[3,4-d]pyrimidin-4-yl]-piperazin-1-yl}-propane-1,2-diol], for which the IC50 is 100 to 1000 nM. `Nc1cccc(CC(=O)Nc2cc(-c3nc(N[C@@H]4CCNC4)c4ccncc4n3)ccn2)c1` [Example 317, 2-(3-Amino-phenyl)-N-{4-[4-((R)-pyrrolidin-3-ylamino)-pyrido[3,4-d]pyrimidin-2-yl]-pyridin-2-yl}-acetamide]: the IC50 was in the range of 100 to 1000 nM.

The values are drawn from patent US9914730B2, “Azaquinazoline inhibitors of Atypical protein Kinase C” (Ignyta, Inc., priority 2012, dated 2018).
